Experimental data taken from US20160058782A1, “MAILLARD REACTION INHIBITOR” (MORISHITA JINTAN CO., LTD., priority 2011, published 2016).
Values after ≈ are worked out from the molar mass of the structure shown. Values belong to the compound of their own block, whether it stands above or below them.

System: Maillard reaction (Human Serum Albumin and Glucose)
Assay: Measurement of the Maillard reaction inhibitory activity (fluorescent products of human serum albumin and glucose, 60° C., 40 hours)
Settings: for IC50 values compared with tannic acid, ellagic acid dihydrate and aminoguanidine / Maillard reaction inhibitory activity compared with aminoguanidine (positive control) / Maillard reaction inhibition ratio (%) compared with ellagic acid dihydrate and aminoguanidine: in words; for Maillard reaction inhibitory activity compared with aminoguanidine (positive control): Tables 2 and 3; for Maillard reaction inhibition ratio (%) compared with ellagic acid dihydrate and aminoguanidine: when prepared at lower concentrations; for IC50: human, 40 h
Description: A pomegranate extract (containing 50% by mass of polyphenol; manufactured by Morishita Jintan Co., Ltd.), punicalin, punicalagin, oenothein B, eucarbanin B, punicacortein C, a compound represented by the formula (VI), and a compound represented by the formula (VII) were used as samples to be examined. Tannic acid and ellagic acid dihydrate were used for comparison. Aminoguanidine was used as a positive control. […], 300 μg/mL and 1,000 μg/mL, and the Maillard reaction inhibitory activity of the prepared solutions was measured. The inhibitory activity was measured as follows.
Four reaction solutions A to D shown in Table 1 below were prepared using the above-described prepared solutions of the samples, and were incubated at 60° C. for 40 hours to cause the Maillard reaction. Thereafter, 400 μL of the reaction solutions A to D was diluted with 2,400 μL of distilled water and diluted samples were obtained. The fluorescence intensity (the excitation light: 370 nm; the measurement light: 440 nm) of the diluted samples was measured and was expressed as a relative value with respect to the fluorescence intensity of 0.1 μg/mL solution of quinine sulfate that was taken as 100 to calculate the amount of fluorescent products of the Maillard reaction (quantitative value).
Next, the Maillard reaction inhibition ratio (%) with respect to the above-described prepared solutions (concentration (μg/mL)) of the samples was calculated from the obtained quantitative value using the following equation.
Equation: Inhibition ratio (%)=100−[(a−b)/(c−d)]×100 [Formula 1]
where a represents a relative value (−) of the fluorescent products of the Maillard reaction with the reaction solution A calculated in terms of quinine sulfate,
b represents a relative value (−) of the fluorescent products of the Maillard reaction in terms of quinine sulfate when the reaction solution B is used,
c represents a relative value (−) of the fluorescent products of the Maillard reaction in terms of quinine sulfate when the reaction solution C is used, and
d represents a relative value (−) of the fluorescent products of the Maillard reaction in terms of quinine sulfate when the reaction solution D is used.
Thereafter, 50% inhibition ratio (IC50) of each sample was calculated as follows. That is, the inhibition ratio was plotted with respect to the sample concentration, 4-parameter plot was performed, and the concentration showing an inhibition ratio of 50% was taken as IC50.

Structure (SMILES): O=C(OC1C(O)OC2COC(=O)c3cc(Oc4c(C(=O)OC5C(O)OC6COC(=O)c7cc(Oc8c(C(=O)OC9C(O)OC%10COC(=O)c%11cc(Oc%12c(C(=O)OC%13C(O)OC%14COC(=O)c%15cc(O)c(O)c(O)c%15-c%15c(cc(O)c(O)c%15O)C(=O)O[C@H]%14C%13OC(=O)c%13cc(O)c(O)c(O)c%13)cc(O)c(O)c%12O)c(O)c(O)c%11-c%11c(cc(O)c(O)c%11O)C(=O)O[C@H]%10C9OC(=O)c9cc(O)c(O)c(O)c9)cc(O)c(O)c8O)c(O)c(O)c7-c7c(cc(O)c(O)c7O)C(=O)O[C@H]6C5OC(=O)c5cc(O)c(O)c(O)c5)cc(O)c(O)c4O)c(O)c(O)c3-c3c(cc(O)c(O)c3O)C(=O)O[C@H]2C1OC(=O)c1cc(O)c(O)c(O)c1)c1cc(O)c(O)c(O)c1 (stereo partly shown)
- Maillard reaction inhibition ratio (%) (Conc. 0.01 mg/mL): 30.4%
- Maillard reaction inhibition ratio (%) (Conc. 0.1 mg/mL): 40.3%
- Maillard reaction inhibition ratio (%) (Conc. 1 mg/mL): 74.3%
- Maillard reaction inhibition ratio (%) (Conc. 10 mg/mL): 82.5%
- IC50 values compared with tannic acid, ellagic acid dihydrate and aminoguanidine: particularly low
- Maillard reaction inhibitory activity compared with aminoguanidine (positive control): superior Maillard reaction inhibitory activity to aminoguanidine
- Maillard reaction inhibition ratio (%) compared with ellagic acid dihydrate and aminoguanidine: particularly superior

Structure (SMILES): N=C(N)NN [Aminoguanidine, reference compound]
- Maillard reaction inhibition ratio (%) (Conc. 100 mg/mL): 40.2%
- Maillard reaction inhibition ratio (%) (Conc. 300 mg/mL): 51.4%
- Maillard reaction inhibition ratio (%) (Conc. 1000 mg/mL): 62%
- IC50: 273 µg/mL (≈ 3690 µM)

Structure (SMILES): O=C1OC2C(O)OC3COC(=O)c4cc(O)c(O)c(O)c4-c4c(O)c(O)c5oc(=O)c6c(c(O)c(O)c7oc(=O)c4c5c76)-c4c(cc(O)c(O)c4O)C(=O)O[C@H]3C2OC(=O)c2cc(O)c(O)c(O)c2-c2c1cc(O)c(O)c2O (stereo partly shown) [Punicalagin, punicalagin]
- Maillard reaction inhibition ratio (%) (Conc. 0.01 mg/mL): 4.3%
- Maillard reaction inhibition ratio (%) (Conc. 0.03 mg/mL): 10.9%
- Maillard reaction inhibition ratio (%) (Conc. 0.1 mg/mL): 36.2%
- Maillard reaction inhibition ratio (%) (Conc. 0.3 mg/mL): 71.4%
- Maillard reaction inhibition ratio (%) (Conc. 1 mg/mL): 73.5%
- Maillard reaction inhibition ratio (%) (Conc. 10 mg/mL): 86.1%
- IC50 values compared with tannic acid, ellagic acid dihydrate and aminoguanidine: particularly low
- Maillard reaction inhibitory activity compared with aminoguanidine (positive control): superior Maillard reaction inhibitory activity to aminoguanidine
- Maillard reaction inhibition ratio (%) compared with ellagic acid dihydrate and aminoguanidine: particularly superior

Continued, in another order:

- IC50: 0.13 µg/mL
- IC50 values compared with tannic acid, ellagic acid dihydrate and aminoguanidine: particularly low
Structure (SMILES): O=C(OC1C(O)OC2COC(=O)c3cc(Oc4c(C(=O)OC5C(O)OC6COC(=O)c7cc(Oc8c(C(=O)OC9C(O)OC%10COC(=O)c%11cc(O)c(O)c(O)c%11-c%11c(cc(O)c(O)c%11O)C(=O)O[C@H]%10C9OC(=O)c9cc(O)c(O)c(O)c9)cc(O)c(O)c8O)c(O)c(O)c7-c7c(cc(O)c(O)c7O)C(=O)O[C@H]6C5OC(=O)c5cc(O)c(O)c(O)c5)cc(O)c(O)c4O)c(O)c(O)c3-c3c(cc(O)c(O)c3O)C(=O)O[C@H]2C1OC(=O)c1cc(O)c(O)c(O)c1)c1cc(O)c(O)c(O)c1 (stereo partly shown) [Compound represented by the formula (VI)]
- Maillard reaction inhibition ratio (%) (Conc. 0.1 mg/mL): 46.6%
- Maillard reaction inhibition ratio (%) (Conc. 1 mg/mL): 76.7%
- Maillard reaction inhibition ratio (%) (Conc. 10 mg/mL): 95.4%
- Maillard reaction inhibitory activity compared with aminoguanidine (positive control): superior Maillard reaction inhibitory activity to aminoguanidine

- IC50: 0.34 µg/mL
Structure (SMILES): O=c1oc2c(O)c(O)cc3c(=O)oc4c(O)c(O)cc1c4c23 [Ellagic acid dihydrate, ellagic acid dihydrate, reference compound]
- Maillard reaction inhibition ratio (%) (Conc. 0.01 mg/mL): 1.9%
- Maillard reaction inhibition ratio (%) (Conc. 0.03 mg/mL): 2.2%
- Maillard reaction inhibition ratio (%) (Conc. 0.1 mg/mL): 12.0%
- Maillard reaction inhibition ratio (%) (Conc. 0.3 mg/mL): 44.8%
- Maillard reaction inhibition ratio (%) (Conc. 1 mg/mL): 68.3%
- Maillard reaction inhibition ratio (%) (Conc. 10 mg/mL): 78.4%

- IC50: 0.43 µg/mL (≈ 0.274 µM)
Structure (SMILES): O=C(OC1C(O)OC2COC(=O)c3cc(Oc4c(C(=O)OC5C(O)OC6COC(=O)c7cc(O)c(O)c(O)c7-c7c(cc(O)c(O)c7O)C(=O)O[C@H]6C5OC(=O)c5cc(O)c(O)c(O)c5)cc(O)c(O)c4O)c(O)c(O)c3-c3c(cc(O)c(O)c3O)C(=O)O[C@H]2C1OC(=O)c1cc(O)c(O)c(O)c1)c1cc(O)c(O)c(O)c1 (stereo partly shown) [Eucarbanin B, eucarbanin B]
- Maillard reaction inhibition ratio (%) (Conc. 0.1 mg/mL): 21.2%
- Maillard reaction inhibition ratio (%) (Conc. 1 mg/mL): 72.9%
- Maillard reaction inhibition ratio (%) (Conc. 10 mg/mL): 79.4%
- Maillard reaction inhibitory activity compared with aminoguanidine (positive control): superior Maillard reaction inhibitory activity to aminoguanidine

- IC50 values compared with tannic acid, ellagic acid dihydrate and aminoguanidine: particularly low
Structure (SMILES): O=C1OC[C@H]2OC(O)[C@H](O)[C@@H](O)[C@@H]2OC(=O)c2cc(O)c(O)c(O)c2-c2c(O)c(O)c3oc(=O)c4c(c(O)c(O)c5oc(=O)c2c3c54)-c2c1cc(O)c(O)c2O (stereo partly shown) [Punicalin, punicalin]
- Maillard reaction inhibition ratio (%) (Conc. 0.01 mg/mL): 7.6%
- Maillard reaction inhibition ratio (%) (Conc. 0.03 mg/mL): 6.5%
- Maillard reaction inhibition ratio (%) (Conc. 0.1 mg/mL): 32.1%
- Maillard reaction inhibition ratio (%) (Conc. 0.3 mg/mL): 69.6%
- Maillard reaction inhibition ratio (%) (Conc. 1 mg/mL): 73.1%
- Maillard reaction inhibition ratio (%) (Conc. 10 mg/mL): 84.9%
- Maillard reaction inhibitory activity compared with aminoguanidine (positive control): superior Maillard reaction inhibitory activity to aminoguanidine
- Maillard reaction inhibition ratio (%) compared with ellagic acid dihydrate and aminoguanidine: particularly superior

- IC50: 0.31 µg/mL (≈ 0.182 µM)
Structure (SMILES): O=C(OC[C@H]1O[C@@H](OC(=O)c2cc(O)c(O)c(OC(=O)c3cc(O)c(O)c(O)c3)c2)[C@H](OC(=O)c2cc(O)c(O)c(OC(=O)c3cc(O)c(O)c(O)c3)c2)[C@@H](OC(=O)c2cc(O)c(O)c(OC(=O)c3cc(O)c(O)c(O)c3)c2)[C@@H]1OC(=O)c1cc(O)c(O)c(OC(=O)c2cc(O)c(O)c(O)c2)c1)c1cc(O)c(O)c(OC(=O)c2cc(O)c(O)c(O)c2)c1 [Tannic acid, reference compound]
- Maillard reaction inhibition ratio (%) (Conc. 0.01 mg/mL): 12.7%
- Maillard reaction inhibition ratio (%) (Conc. 0.1 mg/mL): 48.7%
- Maillard reaction inhibition ratio (%) (Conc. 1 mg/mL): 65.1%
- Maillard reaction inhibition ratio (%) (Conc. 10 mg/mL): 68.8%
